These results are taken from patent US9422285B2, “Substituted pyrazolo[1,5-A]-pyridine-3-carboxamides and use thereof” (Bayer Pharma Aktiengesellschaft, priority 2014, dated 2016).

Series [1] is described as follows: Pharmacokinetic parameters following intravenous administration in rats (B-6). In kind it is in vivo, male Wistar rats. As to conditions: for MRT / half-life: male, Wistar, rat, plasma; for MRT: mean residence time; for half-life: terminal half-life. From the text: • Klaus Witte, Kai Hu, Johanna Swiatek, Claudia Müssig, Georg Ertl and Bjorn Lemmer: Experimental heart failure in rats: effects on cardiovascular circadian rhythms and on myocardial β-adrenergic signaling. Cardiovasc Res 47 (2): […], 2000; Kozo Okamoto: Spontaneous hypertension in rats. Int Rev Exp Pathol 7: 227-270, 1969; Maarten van den Buuse: Circadian Rhythms of Blood Pressure, Heart Rate, and Locomotor Activity in Spontaneously Hypertensive Rats as Measured With Radio-Telemetry. Physiology & Behavior 55(4): 783-787, 1994 B-6. Determination of Pharmacokinetic Parameters Following Intravenous and Oral Administration
The pharmacokinetic parameters of the inventive compounds are determined in male CD-1 mice, male Wistar rats and female beagles. Intravenous administration in the case of mice and rats is effected by means of a species-specific plasma/DMSO formulation, and in the case of dogs by means of a water/PEG400/ethanol formulation. In all species, oral administration of the dissolved substance is performed via gavage, based on a water/PEG400/ethanol formulation. The removal of blood from rats is simplified by inserting a silicone catheter into the right Vena jugularis externa prior to substance administration. The operation is effected at least one day prior to the experiment with isofluran anaesthesia and administration of an analgesic (atropine/rimadyl (3/1) 0.1 ml s.c.). The blood is taken (generally more than 10 time points) within a time window including terminal time points of at least 24 to a maximum of 72 hours after substance administration. The blood is removed into heparinized tubes. The blood plasma is then obtained by centrifugation; if required, it can be stored at −20° C. until further processing.
An internal standard (which may also be a chemically unrelated substance) is added to the samples of the inventive compounds, calibration samples and qualifiers, and there follows protein precipitation by means of acetonitrile in excess. Addition of a buffer solution matched to the LC conditions, and subsequent vortexing, is followed by centrifugation at 1000 g. The supernatant is analysed by means of LC-MS/MS using C18 reversed-phase columns and variable mobile phase mixtures. The substances are quantified via the peak heights or areas from extracted ion chromatograms of specific selected ion monitoring experiments.
The plasma concentration/time plots determined are used to calculate the pharmacokinetic parameters such as AUC, Cmax, t1/2 (terminal half-life), F (bioavailability), MRT (mean residence time) and CL (clearance), by means of a validated pharmacokinetic calculation program.
Since the substance quantification is performed in plasma, it is necessary to determine the blood/plasma distribution of the substance in order to be able to adjust the pharmacokinetic parameters correspondingly. For this purpose, a defined amount of substance is incubated in heparinized whole blood of the species in question in a rocking roller mixer for 20 min. After centrifugation at 1000 g, the plasma concentration is measured (by means of LC-MS/MS; see above) and determined by calculating the ratio of the Cblood/Cplasma value.

Series [2] has as its target T1, recombinant guanylate cyclase reporter cell line (Rattus norvegicus, UniProt P19686+P20595).
T1 construct: expressed in transfected cells
T1 sequence (P19686 1-690): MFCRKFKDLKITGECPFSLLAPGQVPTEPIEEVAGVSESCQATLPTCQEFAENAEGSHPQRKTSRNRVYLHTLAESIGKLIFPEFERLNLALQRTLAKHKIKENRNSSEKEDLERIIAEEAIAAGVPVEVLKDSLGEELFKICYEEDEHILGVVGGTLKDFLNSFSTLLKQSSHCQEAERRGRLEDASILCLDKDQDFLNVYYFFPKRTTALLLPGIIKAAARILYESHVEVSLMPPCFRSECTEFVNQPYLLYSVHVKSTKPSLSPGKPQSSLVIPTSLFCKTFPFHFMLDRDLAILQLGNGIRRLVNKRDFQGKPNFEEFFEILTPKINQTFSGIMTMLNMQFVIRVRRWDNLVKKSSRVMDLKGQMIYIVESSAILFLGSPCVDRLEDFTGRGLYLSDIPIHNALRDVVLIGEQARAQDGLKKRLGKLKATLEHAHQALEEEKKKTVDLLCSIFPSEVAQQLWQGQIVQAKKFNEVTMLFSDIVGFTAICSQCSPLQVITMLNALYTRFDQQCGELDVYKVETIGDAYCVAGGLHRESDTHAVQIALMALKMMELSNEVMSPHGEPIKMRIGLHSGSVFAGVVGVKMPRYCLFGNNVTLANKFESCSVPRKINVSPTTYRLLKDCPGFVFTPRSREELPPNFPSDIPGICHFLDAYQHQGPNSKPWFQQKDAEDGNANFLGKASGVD
T1 sequence (P20595 1-619): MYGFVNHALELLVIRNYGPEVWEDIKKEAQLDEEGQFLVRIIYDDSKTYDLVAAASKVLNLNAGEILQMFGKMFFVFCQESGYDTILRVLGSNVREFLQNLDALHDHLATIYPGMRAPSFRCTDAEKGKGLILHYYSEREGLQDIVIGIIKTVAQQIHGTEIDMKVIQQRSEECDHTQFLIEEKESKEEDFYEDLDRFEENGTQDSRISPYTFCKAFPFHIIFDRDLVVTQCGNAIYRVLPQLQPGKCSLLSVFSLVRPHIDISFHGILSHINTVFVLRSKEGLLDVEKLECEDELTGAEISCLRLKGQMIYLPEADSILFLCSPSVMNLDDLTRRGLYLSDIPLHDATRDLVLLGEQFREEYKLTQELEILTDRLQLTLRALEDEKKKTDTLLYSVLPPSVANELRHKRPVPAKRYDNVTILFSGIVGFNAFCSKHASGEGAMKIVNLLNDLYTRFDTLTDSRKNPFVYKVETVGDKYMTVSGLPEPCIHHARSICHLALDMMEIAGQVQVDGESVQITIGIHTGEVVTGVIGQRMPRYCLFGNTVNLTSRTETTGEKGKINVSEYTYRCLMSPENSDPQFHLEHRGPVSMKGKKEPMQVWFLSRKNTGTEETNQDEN
In words: Effect on a recombinant guanylate cyclase reporter cell line (B-2). The format is cell-based. The note with it: in some cases mean values for individual determinations. As to the method: B-2. Effect on a Recombinant Guanylate Cyclase Reporter Cell Line
The cellular effect of the inventive compounds is determined using a recombinant guanylate cyclase reporter cell line, as described in F. Wunder et al., Anal. Biochem. 339, 104-112 (2005).
Representative MEC values (MEC=minimum effective concentration) for the inventive compounds are shown in the table below (in some cases as mean values for individual determinations): […]

The MRT is a mean duration of stay, worked out from the concentration-time curve. The half-life is the time in which the quantity being followed falls by half. `Cc1cc(OCc2c(F)ccc(F)c2F)n2nc(C3CC3)c(C(=O)NCC(C)(N)CCC(F)(F)F)c2c1` (single isomer, unassigned; enantiomer b) [Example 170, ent-N-(2-Amino-5,5,5-trifluoro-2-methylpentyl)-2-cyclopropyl-5-methyl-7-[(2,3,6-trifluorobenzyl)oxy]pyrazolo[1,5-a]pyridine-3-carboxamide (Enantiomer B)]: in series [1], the AUCnormal came out at 0.32 kg·h/L, the CLblood was found to be 48.7 mL/min/kg, the MRT amounted to 3.4 h and the half-life was 2.6 h. The “MEC (minimum effective concentration)” value in series [2] worked out at 0.1 µM.
In series [1], `CCCC(C)(N)CNC(=O)c1c(C)nn2c(OCc3c(F)cccc3F)cc(C)cc12` (single isomer, unassigned) [Example 39, ent-N-(2-Amino-2-methylpentyl)-7-[(2,6-difluorobenzyl)oxy]-2,5-dimethylpyrazolo[1,5-a]pyridine-3-carboxamide] gave an AUCnormal of 0.53 kg·h/L, a CLblood of 41 mL/min/kg, an MRT of 7.8 h and a half-life of 6.2 h. Besides, the “MEC (minimum effective concentration)” value in series [2] was 0.3 µM.
On the same counts, the results for `Cc1cc(OCc2c(F)ccc(F)c2F)n2nc(C)c(C(=O)NCC(C)(N)CCC(F)(F)F)c2c1` (single isomer, unassigned; enantiomer b) [Example 168, ent-N-(2-Amino-5,5,5-trifluoro-2-methylpentyl)-2,5-dimethyl-7-[(2,3,6-trifluorobenzyl)oxy]pyrazolo[1,5-a]pyridine-3-carboxamide (Enantiomer B)] are 0.45 kg·h/L, 36.5 mL/min/kg, 4.3 h, 3.2 h and 0.1 µM.
For the compound `Cc1cc(OCc2c(F)cccc2F)n2nc(C)c(C(=O)NCC(C)(N)CCC(F)(F)F)c2c1` (single isomer, unassigned) [Example 43, ent-N-(2-Amino-5,5,5-trifluoro-2-methylpentyl)-7-[(2,6-difluorobenzyl)oxy]-2,5-dimethylpyrazolo[1,5-a]pyridine-3-carboxamide], in series [1], the AUCnormal is 0.49 kg·h/L, the CLblood was 42.7 mL/min/kg, the MRT was 7.4 h and the half-life is 5.9 h. Also, the “MEC (minimum effective concentration)” value in series [2] was 0.1 µM.
